Data on two compounds can be found in US20240245694A1, “Tricyclic Compounds and their Uses” (Novartis AG, priority 2022, published 2024).

The target of data set [1] is WRN helicase (core helicase motif aa N517-P1238) (Homo sapiens (Human), UniProt Q14191). Nature of the data set: WRN ATPase assay (ADP-Glo), DNA dependent ATP hydrolysis. The format is biochemical. The settings on record: 3 hours pre-incubation, 300 micromolar ATP, FLAP26 ssDNA; geometric means of at least 2 determinations. The gist of the method: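 Uses the WRN core helicase (aa N517-P1238) with single-strand 45-mer FLAP26 DNA in Tris pH 7.5, MgCl2, NaCl, BSA and pluronic buffer. Compound was pre-incubated 3 h with enzyme and ATP; reaction then run with 10 nM WRN, 0.2 nM FLAP26 and 300 µM ATP for 30 min at room temperature. ADP quantified by ADP-Glo luminescence; IC50 from duplicate 4-parameter fits, geometric mean of ≥2 runs.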
Sequence of WRN helicase (core helicase motif aa N517-P1238) (Q14191 517-1238): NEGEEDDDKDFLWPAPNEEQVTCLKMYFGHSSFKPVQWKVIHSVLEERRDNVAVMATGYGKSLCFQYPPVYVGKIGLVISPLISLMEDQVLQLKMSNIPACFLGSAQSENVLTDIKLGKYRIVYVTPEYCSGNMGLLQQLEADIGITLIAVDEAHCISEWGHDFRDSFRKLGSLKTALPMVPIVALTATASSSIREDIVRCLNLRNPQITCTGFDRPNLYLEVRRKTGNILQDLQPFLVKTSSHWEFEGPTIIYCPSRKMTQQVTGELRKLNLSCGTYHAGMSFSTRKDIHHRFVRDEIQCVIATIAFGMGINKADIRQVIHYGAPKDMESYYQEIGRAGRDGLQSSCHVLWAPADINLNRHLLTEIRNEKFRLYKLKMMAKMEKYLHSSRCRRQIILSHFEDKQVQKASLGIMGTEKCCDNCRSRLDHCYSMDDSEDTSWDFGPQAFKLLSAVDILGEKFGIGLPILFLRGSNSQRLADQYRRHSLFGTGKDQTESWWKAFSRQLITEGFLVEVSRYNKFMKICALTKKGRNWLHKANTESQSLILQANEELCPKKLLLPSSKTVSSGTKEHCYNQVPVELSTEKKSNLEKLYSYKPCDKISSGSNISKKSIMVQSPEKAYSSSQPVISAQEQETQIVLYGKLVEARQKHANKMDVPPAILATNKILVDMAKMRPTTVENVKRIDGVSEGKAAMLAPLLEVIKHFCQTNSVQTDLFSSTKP

A short description of data set [2]: Tolerability (body weight) in the SW48 xenograft study. It counts as in vivo, Crl:NU(NCr)-Foxn1nu nude mice. Here is the method: Experiments were performed in female Crl:NU(NCr)-Foxn1^nu-homozygous nude mice (Charles River). Animals were housed under Optimized Hygienic Conditions in Allentown XJ cages (IVC, max. 6 mice per cage) with food and water at libitum and a 12 h:12 h light:dark cycle. Animals were allowed to acclimatize for at least 1 week before being enrolled in the experimental design. The study described here was performed according to license 1975 approved by the Basel Cantonal Veterinary Office.
Amorphous sodium salt of test compound (corrected by salt factor) was dissolved in an aqueous 20% w/v solution of 2-hydroxypropyl-beta-cyclodextrin (HPBCD). A range of concentrations was prepared by serial dilution starting from the solution at highest concentration for the highest dose in the study.
Treatment was initiated about two weeks post tumor cell inoculation, when the xenografts had reached a mean volume of approximately 200 mm^3. The tumor bearing animals were randomized based on tumor volumes into experimental groups with 6 animals per group and treatment was initiated. Compounds were dosed orally (p.o.) once per day (qd) at 1, 3, 5 or 10 mg/kg (Example 18A) and at 0.1, 0.3, 1, 3 mg/kg (Example 21A). In addition, a control group treated once per day with vehicle (20% 2-hydroxypropyl-β-cyclodextrin) was included in each study. Tumor volumes and body weights were measured two times per week until the study termination.

In data set [1], `Cc1ncnc(C(=O)N2CCN(c3c4n(c5nc(C6=CCOCC6)nn5c3=O)[C@@H](C(=O)Nc3ccc(C(F)(F)F)cc3Cl)C[C@H]4C)C[C@H]2C)c1O` [Example 18A, (7R,9R)—N-(2-chloro-4-(trifluoromethyl)phenyl)-2-(3,6-dihydro-2H-pyran-4-yl)-6-((R)-4-(5-hydroxy-6-methylpyrimidine-4-carbonyl)-3-methylpiperazin-1-yl)-7-methyl-5-oxo-5,7,8,9-tetrahydropyrrolo[1,2-c][1,2,4]triazolo[1,5-a]pyrimidine-9-carboxamide] registered an IC50 of 50 nM. In addition, the “body weight gain, of the body weight at start” value in data set [2] (1, 3, 5 or 10 mg/kg p.o. qd, after the initial body weight loss) was “up to 18%”. The “initial body weight loss among individual animals” value in data set [2] (1, 3, 5 or 10 mg/kg p.o. qd, first ten days of treatment) is reported as ≤ 14%.

Take `Cc1ncnc(C(=O)N2CCN(c3c4n(c5nc(C6=CCOCC6)nn5c3=O)[C@@H](C(=O)Nc3ccc(C(F)(F)F)cc3Cl)C[C@H]4C)[C@H]3CC[C@@H]32)c1O` [Example 21A, (7R,9R)—N-(2-chloro-4-(trifluoromethyl)phenyl)-2-(3,6-dihydro-2H-pyran-4-yl)-6-((1S,6S)-5-(5-hydroxy-6-methylpyrimidine-4-carbonyl)-2,5-diazabicyclo[4.2.0]octan-2-yl)-7-methyl-5-oxo-5,7,8,9-tetrahydropyrrolo[1,2-c][1,2,4]triazolo[1,5-a]pyrimidine-9-carboxamide]: 30 nM corresponded to half-maximal inhibition in data set [1] (IC50). In addition, in data set [2] (0.1, 0.3, 1, 3 mg/kg p.o. qd, throughout the study), the tolerability entry is “well tolerated”. Besides, in data set [2] (0.1, 0.3, 1, 3 mg/kg p.o. qd, not dose-dependent), the “body weight loss among individual animals on individual occasions” value was ≤ 15%.
